This passage reports IC50 results from publication PMC11101940, “A highly selective KIT inhibitor MOD000001 suppresses IgE-mediated mast cell activation” (The Journal of Allergy and Clinical Immunology: Global, 2024).

What all share (assay type): biochemical
Assay [1] concerns the target platelet derived growth factor-receptor B (PDGFRB) (Homo sapiens, UniProt P09619). Kind of assay: cell-free recombinant human kinase assay.
For assay [2], the target named is platelet derived growth factor-receptor A (PDGFRA) (Homo sapiens, UniProt P16234). As to the kind of experiment: cell-free recombinant human kinase assay.
Sequence of platelet derived growth factor-receptor A (PDGFRA) (P16234 24-1089): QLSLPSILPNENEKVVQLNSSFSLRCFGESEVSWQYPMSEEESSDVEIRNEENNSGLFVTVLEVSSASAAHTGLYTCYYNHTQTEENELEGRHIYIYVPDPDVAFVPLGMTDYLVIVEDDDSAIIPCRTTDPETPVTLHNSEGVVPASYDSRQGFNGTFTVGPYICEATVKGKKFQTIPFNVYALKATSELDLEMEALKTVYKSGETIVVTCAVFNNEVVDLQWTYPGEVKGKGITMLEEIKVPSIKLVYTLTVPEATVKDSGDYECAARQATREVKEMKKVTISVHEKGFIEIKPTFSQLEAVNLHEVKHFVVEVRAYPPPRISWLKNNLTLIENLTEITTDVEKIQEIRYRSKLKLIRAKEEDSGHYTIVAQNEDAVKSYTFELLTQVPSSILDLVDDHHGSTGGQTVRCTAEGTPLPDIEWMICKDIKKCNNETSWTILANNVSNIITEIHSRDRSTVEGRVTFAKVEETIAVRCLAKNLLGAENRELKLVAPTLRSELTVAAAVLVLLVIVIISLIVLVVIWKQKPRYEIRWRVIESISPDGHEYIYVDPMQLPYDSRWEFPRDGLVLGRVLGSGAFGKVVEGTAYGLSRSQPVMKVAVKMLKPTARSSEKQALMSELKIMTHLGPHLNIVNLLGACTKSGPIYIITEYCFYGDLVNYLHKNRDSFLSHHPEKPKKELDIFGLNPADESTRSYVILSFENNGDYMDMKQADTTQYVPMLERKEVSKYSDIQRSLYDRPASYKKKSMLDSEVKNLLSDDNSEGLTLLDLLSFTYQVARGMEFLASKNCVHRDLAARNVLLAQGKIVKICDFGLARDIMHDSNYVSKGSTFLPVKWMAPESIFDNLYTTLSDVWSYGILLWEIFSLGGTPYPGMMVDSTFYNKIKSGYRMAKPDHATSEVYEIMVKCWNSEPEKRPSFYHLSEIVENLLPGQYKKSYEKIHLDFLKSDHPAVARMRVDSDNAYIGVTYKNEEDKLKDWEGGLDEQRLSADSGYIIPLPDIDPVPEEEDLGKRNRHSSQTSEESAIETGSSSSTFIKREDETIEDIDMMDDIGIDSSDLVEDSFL
The target in assay [3] is KIT (Homo sapiens, UniProt P10721). Kind of assay: cell-free recombinant human kinase assay (also KINOMEscan binding).
Sequence of KIT (P10721 26-976): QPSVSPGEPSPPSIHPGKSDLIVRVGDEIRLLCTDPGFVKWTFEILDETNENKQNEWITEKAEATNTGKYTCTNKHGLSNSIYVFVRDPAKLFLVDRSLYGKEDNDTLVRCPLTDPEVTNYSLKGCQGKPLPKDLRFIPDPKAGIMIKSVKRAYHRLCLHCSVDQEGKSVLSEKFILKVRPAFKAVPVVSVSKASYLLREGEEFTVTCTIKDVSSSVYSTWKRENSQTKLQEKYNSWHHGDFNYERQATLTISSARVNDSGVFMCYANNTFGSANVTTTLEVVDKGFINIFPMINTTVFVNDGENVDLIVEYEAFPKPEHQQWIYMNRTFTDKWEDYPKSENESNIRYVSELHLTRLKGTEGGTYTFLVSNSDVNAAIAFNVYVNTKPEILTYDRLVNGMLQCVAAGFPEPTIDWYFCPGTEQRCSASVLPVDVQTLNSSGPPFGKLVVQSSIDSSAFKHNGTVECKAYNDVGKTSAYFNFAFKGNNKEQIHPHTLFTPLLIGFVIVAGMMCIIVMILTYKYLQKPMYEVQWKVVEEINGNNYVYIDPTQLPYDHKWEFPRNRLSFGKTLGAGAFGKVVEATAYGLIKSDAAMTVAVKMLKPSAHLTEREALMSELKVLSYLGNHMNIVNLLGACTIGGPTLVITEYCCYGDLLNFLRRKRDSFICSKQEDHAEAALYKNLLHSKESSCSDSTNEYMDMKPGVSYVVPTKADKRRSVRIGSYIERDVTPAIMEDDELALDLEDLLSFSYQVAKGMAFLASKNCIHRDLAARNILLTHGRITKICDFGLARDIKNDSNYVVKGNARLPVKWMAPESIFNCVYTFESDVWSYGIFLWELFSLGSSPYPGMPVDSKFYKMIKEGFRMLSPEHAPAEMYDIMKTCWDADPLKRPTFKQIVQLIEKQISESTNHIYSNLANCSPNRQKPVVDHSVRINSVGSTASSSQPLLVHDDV

Sequence of platelet derived growth factor-receptor B (PDGFRB) (P09619 33-1106): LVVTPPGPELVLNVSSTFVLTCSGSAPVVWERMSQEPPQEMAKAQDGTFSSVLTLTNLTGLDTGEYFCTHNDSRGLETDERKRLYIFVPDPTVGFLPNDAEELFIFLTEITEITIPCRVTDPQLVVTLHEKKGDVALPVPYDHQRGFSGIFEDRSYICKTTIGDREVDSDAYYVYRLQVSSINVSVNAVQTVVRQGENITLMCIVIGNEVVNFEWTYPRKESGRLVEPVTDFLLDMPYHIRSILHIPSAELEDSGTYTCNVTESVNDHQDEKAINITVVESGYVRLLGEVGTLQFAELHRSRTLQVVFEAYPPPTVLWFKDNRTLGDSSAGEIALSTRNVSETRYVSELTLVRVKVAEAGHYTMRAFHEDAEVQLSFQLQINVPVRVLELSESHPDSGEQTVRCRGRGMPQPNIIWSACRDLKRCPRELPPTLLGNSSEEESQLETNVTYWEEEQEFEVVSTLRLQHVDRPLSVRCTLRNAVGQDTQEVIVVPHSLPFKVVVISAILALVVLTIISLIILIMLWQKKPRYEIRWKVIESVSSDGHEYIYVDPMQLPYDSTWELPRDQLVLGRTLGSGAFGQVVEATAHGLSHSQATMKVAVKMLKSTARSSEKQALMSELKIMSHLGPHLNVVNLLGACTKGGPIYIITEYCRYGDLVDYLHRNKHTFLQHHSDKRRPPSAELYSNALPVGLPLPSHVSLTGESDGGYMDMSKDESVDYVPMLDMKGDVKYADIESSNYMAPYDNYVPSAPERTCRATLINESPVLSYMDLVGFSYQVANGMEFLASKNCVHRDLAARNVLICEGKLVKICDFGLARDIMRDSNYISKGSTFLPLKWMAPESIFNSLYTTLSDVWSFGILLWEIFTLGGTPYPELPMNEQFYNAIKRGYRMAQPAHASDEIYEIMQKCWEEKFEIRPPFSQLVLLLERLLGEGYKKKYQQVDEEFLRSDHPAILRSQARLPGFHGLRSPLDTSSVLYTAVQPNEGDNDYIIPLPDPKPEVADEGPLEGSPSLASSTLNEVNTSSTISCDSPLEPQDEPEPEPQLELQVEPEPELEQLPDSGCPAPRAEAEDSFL

MOD000001: the results for the IC50 in assay [1], in assay [2] and in assay [3] were 218 nM, 1400 nM and 2 nM, respectively.
